# From patent publication US20220119446A1, “BIOMARKERS AND TREATMENT OF NEURONAL INJURY AND NEURODEGENERATION” (Board of Supervisons of Louisiana State University and …, priority 2018, published 2022)
# “Also recorded” adds a separate entry of the source.
# Test system: Wnt5a
# Test: SYBR green real-time PCR of Wnt5a mRNA in human primary RPE (hpRPE) cells under UOS
# Type: cell-based
# Experimental: ARPE-19 cells, can be plated and grown in DMEM/F-12 containing 10% FBS and 1× penicillin/streptomycin at 37° C., 5% CO2, 99% relative humidity for 24 h. […] 15-LOX-1 deficient cells can be maintained in the same medium as ARPE-19 with the addition of 500 μg/mL Geneticin (Life Technologies Corporation, Carlsbad, Calif.). Transfection can be performed in all cases using Lipofectamine 2000 (Life Technologies Corporation, Carlsbad, Calif.) following the manufacturer's recommendations. […] Experiments with transfection efficiency that yielded less than 80% can be discarded. For siRNA, we used 6 μl of Lipofectamine 2000 per 50 pmol of siRNA per mL of incubation medium, and, for plasmids, we used 6 μl of Lipofectamine 2000 per 2 μg of plasmid per mL of incubation medium. Cells can be incubated for 5 hours at 37° C., 5% CO2 and 99% relative humidity. […] When siRNA/plasmid co-transfection is required, siRNA and plasmid-carrying transfection mixes can be prepared separately and added one after the other in the same well. Oxidative stress treatments can be performed using 600 (ARPE-19) or 1600 (hRPE) μM H2O2, along with 10 ng/mL TNFα, for the required time indicated in each experiment. The treatment we used employed the low serum (0.5% serum) without hFGF. Treatment to induce uncompensated oxidative stress (UOS) can be performed after 8 hours of low-serum medium incubation unless specifically noted. […]
compound,measurement,setting,value
"CC/C=C\C[C@H](O)\C=C/C=C/C=C/[C@H](O)C/C=C\C/C=C\CCC(=O)O [NPD1, 10R,17S-dihydroxy-docosa-4Z,7Z,11E,13E,15Z,19Z-hexaenoic acid]",Wnt5a transcription (mRNA),"hpRPE cells, UOS 1,600 μM H2O2 and 10 ng/ml TNFα, 6 hours",down regulated Wnt5a transcription; also recorded: decreased Wnt5a expression
same,increase of Wnt5a expression on cRel silencing,"hpRPE, UOS plus NPD1, 12-fold in control, 8-fold in UOS",4 fold
